As to `CC1=C(C(=O)OCc2ccccc2)C(c2ccccc2Cl)c2c[nH]nc2N1` (centres unmarked) [Example 7, Benzyl 4-(2-chlorophenyl)-4,7-dihydro-6-methyl-2H-pyrazolo[3,4-b]pyridine-5-carboxylate], the melting point (in general, the temperature of the solid-liquid transition) stood at 234 °C. Take `CCCC1=C(C(=O)OCC)C(c2cccc(F)c2F)c2c[nH]nc2N1` (centres unmarked) [Example 43, Ethyl 4-(2,3-difluorophenyl)-4,7-dihydro-6-propyl-2H-pyrazolo[3,4-b]pyridine-5-carboxylate]: the melting point was 207 °C. In the case of `CCCC1=C(C#N)C(c2ccccc2Cl)c2c(n[nH]c2-c2cccc(OC)c2)N1` (centres unmarked) [Example 297, 4-(2-Chlorophenyl)-5-cyano-4,7-dihydro-3-(3-methoxyphenyl)-6-propyl-2H-pyrazolo[3,4-b]pyridine] it was 239 °C. For `CCCC1=C(C(=O)OCC)C(c2cccc(OC)c2OC)c2c[nH]nc2N1` (centres unmarked) [Example 46, Ethyl 4-(2,3-dimethoxyphenyl)-4,7-dihydro-6-propyl-2H-pyrazolo[3,4-b]pyridine-5-carboxylate], the melting point was in the range of 205 to 206 °C. In the case of `CCOC(=O)C1=C(C(F)(F)F)Nc2n[nH]cc2C1c1cccc(Cl)c1` (centres unmarked) [Example 17, Ethyl 4-(3-chlorophenyl)-4,7-dihydro-6-trifluoromethyl-2H-pyrazolo[3,4-b]pyridine-5-carboxylate] it was 144 to 145 °C; in that of `N#CC1=C(C2CCNC2)Nc2n[nH]cc2C1c1ccccc1Cl` (centres unmarked) [Example 1086, 4-(2-Chlorophenyl)-5-cyano-4,7-dihydro-6-(pyrrolidin-3-yl)-2H-pyrazolo[3,4-b]pyridine], 210 to 215 °C (dec.). With `CCCC1=C(C#N)C(c2ccccc2OC)c2c[nH]nc2N1` (centres unmarked) [Example 129, 5-Cyano-4,7-dihydro-4-(2-methoxyphenyl)-6-propyl-2H-pyrazolo[3,4-b]pyridine] the figure was 203 °C; with `N#CC1=C(c2ccc(Cl)s2)Nc2n[nH]cc2C1c1cccc2nonc12` (centres unmarked) [Example 298, 4-(2,1,3-Benzoxadiazol-4-yl)-6-(2-chlorothiophen-5-yl)-5-cyano-4,7-dihydro-2H-pyrazolo[3,4-b]pyridine], 210 °C; with `Cc1ccccc1C1C(C#N)=C(c2cccs2)Nc2n[nH]cc21` (centres unmarked) [Example 249, 5-Cyano-4,7-dihydro-4-(2-methylphenyl)-6-(thiophen-2-yl)-2H-pyrazolo[3,4-b]pyridine], 276 °C.

`COc1cccc(C2=C(C#N)C(c3ccccc3[N+](=O)[O-])c3c[nH]nc3N2)c1` (centres unmarked) [Example 156, 5-Cyano-4,7-dihydro-6-(3-methoxyphenyl)-4-(2-nitrophenyl)-2H-pyrazolo[3,4-b]pyridine] had a melting point of 220 °C. `N#CC1=C(CN2C(=O)c3ccccc3C2=O)Nc2n[nH]cc2C1c1ccccc1Cl` (centres unmarked) [Example 1079, 4-(2-Chlorophenyl)-5-cyano-4,7-dihydro-6-phthalimidomethyl-2H-pyrazolo[3,4-b]pyridine] registered a melting point of over 250 °C. In the case of `CCOC(=O)C1=C(C(F)(F)F)Nc2n[nH]cc2C1c1ccccc1C(F)(F)F` (centres unmarked) [Example 16, Ethyl 4,7-dihydro-6-trifluoromethyl-4-(2-trifluoromethylphenyl)-2H-pyrazolo[3,4-b]pyridine-5-carboxylate] it was 182 to 186 °C; in that of `CCCC1=C(C#N)C(c2cccc3nocc23)c2c[nH]nc2N1` (centres unmarked) [Example 331, 4-(2,1-Benzoisoxazol-4-yl)-5-cyano-4,7-dihydro-6-propyl-2H-pyrazolo[3,4-b]pyridine], 239 °C; in that of `CCCC1=C(C(=O)OCC)C(c2ccccc2Cl)c2cnn(C(C)=O)c2N1` (centres unmarked) [Example 224, Ethyl 1-acetyl-4-(2-chlorophenyl)-4,7-dihydro-6-propyl-1H-pyrazolo[3,4-b]pyridine-5-carboxylate], 75 to 76 °C.

With `CCCC1=C(C#N)C(c2ccncc2)c2c[nH]nc2N1` (centres unmarked) [Example 337, 5-Cyano-4,7-dihydro-6-propyl-4-(pyridin-4-yl)-2H-pyrazolo[3,4-b]pyridine], the melting point is 224 °C. In the case of `COc1cccc(C2=C(C#N)C(c3cccc4nonc34)c3c[nH]nc3N2)c1` (centres unmarked) [Example 160, 4-(2,1,3-Benzoxadiazol-4-yl)-5-cyano-4,7-dihydro-6-(3-methoxyphenyl)-2H-pyrazolo[3,4-b]pyridine] it was 198 °C; in that of `CC(C)C1=C(C#N)C(c2cccc(Cl)c2Cl)c2c[nH]nc2N1` (centres unmarked) [Example 263, 5-Cyano-4-(2,3-dichlorophenyl)-4,7-dihydro-6-isopropyl-2H-pyrazolo[3,4-b]pyridine], over 250 °C; in that of `CCCC1=C(C(=O)OCC)C(c2cccc(Cl)c2C)c2c[nH]nc2N1` (centres unmarked) [Example 111, Ethyl 4-(3-chloro-2-methylphenyl)-4,7-dihydro-6-propyl-2H-pyrazolo[3,4-b]pyridine-5-carboxylate], 185 °C. As to `N#CC1=C(C2CCCCCC2)Nc2n[nH]cc2C1c1cccc(C#N)c1Br` (centres unmarked) [Example 326, 4-(2-Bromo-3-cyanophenyl)-5-cyano-6-cycloheptyl-4,7-dihydro-2H-pyrazolo[3,4-b]pyridine], the melting point is 252 °C.

Turning to `CCOC(=O)C1=C(C(F)(F)F)Nc2n[nH]cc2C1c1ccc(Cl)cc1` (centres unmarked) [Example 18, Ethyl 4-(4-chlorophenyl)-4,7-dihydro-6-trifluoromethyl-2H-pyrazolo[3,4-b]pyridine-5-carboxylate], the melting point was in the range of 176 to 178 °C. In the case of `CCCC1=C(C(=O)OCC)C(c2ccccc2OCC)c2c[nH]nc2N1` (centres unmarked) [Example 33, Ethyl 4-(2-ethoxyphenyl)-4,7-dihydro-6-propyl-2H-pyrazolo[3,4-b]pyridine-5-carboxylate] it was 203 °C; in that of `N#CC1=C(c2ccccc2)Nc2n[nH]cc2C1c1ccccc1Cl` (centres unmarked) [Example 142, 4-(2-Chlorophenyl)-5-cyano-4,7-dihydro-6-phenyl-2H-pyrazolo[3,4-b]pyridine], 158 °C; in that of `CCCC1=C(C(=O)OC)C(c2ccccc2Cl)c2c[nH]nc2N1` (centres unmarked) [Example 28, Methyl 4-(2-chlorophenyl)-4,7-dihydro-6-propyl-2H-pyrazolo[3,4-b]pyridine-5-carboxylate], 203 to 207 °C. With `CCCC1=C([N+](=O)[O-])C(c2ccccc2OC)c2c[nH]nc2N1` (centres unmarked) [Example 119, 4,7-Dihydro-4-(2-methoxyphenyl)-5-nitro-6-propyl-2H-pyrazolo[3,4-b]pyridine] the figure was 223 °C. In the case of `CCCC1=C(C#N)C(c2cccc3ccccc23)c2c[nH]nc2N1` (centres unmarked) [Example 135, 5-Cyano-4,7-dihydro-4-(naphthalen-1-yl)-6-propyl-2H-pyrazolo[3,4-b]pyridine], the melting point stood at 263 °C. As to `Cl.N#CC1=C(C2CCNCC2)Nc2n[nH]cc2C1c1cccc2nonc12` (centres unmarked), the melting point is over 270 °C. With `CCCCC1=C(C(=O)OCC)C(c2ccccc2OC)c2c[nH]nc2N1` (centres unmarked) [Example 90, Ethyl 6-butyl-4,7-dihydro-4-(2-methoxyphenyl)-2H-pyrazolo[3,4-b]pyridine-5-carboxylate] the figure was 190 °C; with `CCCC1=C(C#N)C(c2ccccc2Cl)c2c(n[nH]c2CC(OC)OC)N1` (centres unmarked) [Example 330, 4-(2-Chlorophenyl)-5-cyano-4,7-dihydro-3-(2,2-dimethoxyethyl)-6-propyl-2H-pyrazolo[3,4-b]pyridine], 180 °C. `N#CC1=C(C2CCC2)Nc2n[nH]cc2C1c1cccc(C#N)c1Br` (centres unmarked) [Example 321, 4-(2-Bromo-3-cyanophenyl)-5-cyano-6-cyclobutyl-4,7-dihydro-2H-pyrazolo[3,4-b]pyridine] yielded a melting point of 278 °C. For the molecule `N#CC1=C(c2ccccc2)Nc2n[nH]cc2C1c1cccc(C(F)(F)F)c1Cl` (centres unmarked) [Example 202, 4-(2-Chloro-3-trifluoromethylphenyl)-5-cyano-4,7-dihydro-6-phenyl-2H-pyrazolo[3,4-b]pyridine], the melting point was over 250 °C. With `Cc1cccc(C2C(C#N)=C(C3CC3)Nc3n[nH]cc32)c1[N+](=O)[O-]` (centres unmarked) [Example 340, 5-Cyano-6-cyclopropyl-4,7-dihydro-4-(3-methyl-2-nitrophenyl)-2H-pyrazolo[3,4-b]pyridine] the figure was 265 °C; with `CCCC1=C(C(=O)OCC)C(C)(c2ccccc2)c2c[nH]nc2N1` (centres unmarked) [Example 108, Ethyl 4,7-dihydro-4-methyl-4-phenyl-6-propyl-2H-pyrazolo[3,4-b]pyridine-5-carboxylate], 207 °C; with `CCCC1=C(C#N)C(c2cccc(Br)c2)c2c[nH]nc2N1` (centres unmarked) [Example 362, 4-(3-Bromophenyl)-5-cyano-4,7-dihydro-6-propyl-2H-pyrazolo[3,4-b]pyridine], 202 to 205 °C. With `CCCC1=C(c2ccccn2)C(c2cccc(C#N)c2Br)c2c[nH]nc2N1` (centres unmarked) [Example 1084, 4-(2-Bromo-3-cyanophenyl)-5-(pyridin-2-yl)-4,7-dihydro-6-propyl-2H-pyrazolo[3,4-b]pyridine] the figure was 205 to 208 °C (dec.). In the case of `CCCC1=C(C#N)C(c2ccc(F)cc2Cl)c2c[nH]nc2N1` (centres unmarked) [Example 363, 5-Cyano-4,7-dihydro-4-(4-fluoro-2-chlorophenyl)-6-propyl-2H-pyrazolo[3,4-b]pyridine] it was 209 to 212 °C; in that of `CCCC1=C([N+](=O)[O-])C(c2ccccc2Br)c2c[nH]nc2N1` (centres unmarked) [Example 118, 4-(2-Bromophenyl)-4,7-dihydro-5-nitro-6-propyl-2H-pyrazolo[3,4-b]pyridine], 226 °C; in that of `CN1CC=C(C2=C(C#N)C(c3cccc(C#N)c3Br)c3c[nH]nc3N2)CC1` (centres unmarked) [Example 1048, 4-(2-Bromo-3-cyanophenyl)-5-cyano-4,7-dihydro-6-(1-methyl-1,2,3,6-tetrahydropyridin-4-yl)-2H-pyrazolo[3,4-b]pyridine], 233 °C. In the case of `CC(=O)C1=C(C#N)C(c2ccccc2Cl)c2c[nH]nc2N1` (centres unmarked) [Example 1080, 6-Acetyl-4-(2-chlorophenyl)-5-cyano-4,7-dihydro-2H-pyrazolo[3,4-b]pyridine], the melting point is 225 to 228 °C (dec.).

(Values after patent US6977262B2, “Dihydropyrazolopyridine compounds and pharmaceutical use thereof” (Mitsubishi Pharma Corporation, priority 2001, dated 2005).)
